Results taken from patent US11691962B2 (eXIthera Pharmaceuticals, Inc., priority 2018, dated 2023).

target: Factor XIa (Homo sapiens (Human), UniProt P03951); experiment: Factor XIa enzyme inhibition assay (dose response, fluorogenic AMC substrate); type: biochemical; conditions: read-out: hFXIa IC50
Procedure, shortened: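 Fluorogenic progress curves (30 min, 1-min reads, 30° C) were recorded for 0.25 nM FXIa cleaving 50 μM Glp-Pro-Arg-AMC in Hepes pH 7.4 buffer with NaCl and Tween 20. Compounds were serially two-fold diluted, and IC50 was fitted with a Hill equation.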

Chain of Factor XIa (P03951 388-625): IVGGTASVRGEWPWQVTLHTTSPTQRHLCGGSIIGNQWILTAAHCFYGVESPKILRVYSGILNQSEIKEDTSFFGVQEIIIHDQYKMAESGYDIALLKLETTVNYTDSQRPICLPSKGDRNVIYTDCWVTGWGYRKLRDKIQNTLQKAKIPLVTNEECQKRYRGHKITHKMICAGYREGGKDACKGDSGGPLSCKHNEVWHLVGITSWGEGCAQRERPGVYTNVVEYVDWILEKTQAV
Chain of Factor XIa (P03951 19-387 partner): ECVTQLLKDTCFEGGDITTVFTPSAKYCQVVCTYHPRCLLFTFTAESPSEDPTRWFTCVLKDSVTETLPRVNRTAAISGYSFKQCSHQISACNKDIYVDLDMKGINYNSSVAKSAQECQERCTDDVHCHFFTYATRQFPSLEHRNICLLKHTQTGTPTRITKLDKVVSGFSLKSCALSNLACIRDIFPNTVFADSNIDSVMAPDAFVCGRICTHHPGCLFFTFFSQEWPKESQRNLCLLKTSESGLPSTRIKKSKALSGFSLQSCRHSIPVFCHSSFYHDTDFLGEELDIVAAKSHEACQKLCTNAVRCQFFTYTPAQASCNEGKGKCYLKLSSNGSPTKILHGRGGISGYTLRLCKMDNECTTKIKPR

SMILES | IC50 [nM]
CC[C@@H](NC(=O)N1C(=O)[C@H](Cc2ccnc(N)c2)[C@H]1C(=O)N(C)c1nccn1C)C1CCCOC1 (stereo partly drawn) [Compound 1-126, (2S,3R)-3-((2-aminopyridin-4-yl)methyl)-N2-(1-methyl-1H-imidazol-2-yl)-N1-((R)-1-(oxan-3-yl)propyl)-N2-methyl-4-oxoazetidine-1,2-dicarboxamide] | 10 to 100
CC[C@@H](NC(=O)N1C(=O)[C@H](Cc2cc(C)nc(NC)c2)[C@H]1C(=O)N(C)c1ccnn1C)c1ccccc1 [Compound 1-61, (2S,3R)-3-((2-methylamino-6-methylpyridin-4-yl)methyl)-N2-(1-methyl-1H-pyrazol-5-yl)-N1-((R)-1-phenylpropyl)-N2-methyl-4-oxoazetidine-1,2-dicarboxamide] | 10 to 100
CC[C@@H](NC(=O)N1C(=O)[C@H](Cc2cc(C)nc(N)c2)[C@H]1C(=O)N(C)c1ccnn1C)c1cccc(C)c1C [Compound 1-149, (2S,3R)-3-((2-amino-6-methylpyridin-4-yl)methyl)-N2-(1-methyl-1H-pyrazol-5-yl)-N1-((R)-1-(2,3-dimethylphenyl)propyl)-N2-methyl-4-oxoazetidine-1,2-dicarboxamide] | 10 to 100
CCC[C@@H](NC(=O)N1C(=O)[C@H](Cc2ccnc(N)c2)[C@H]1C(=O)N(C)c1ccn(C)n1)C1CCCCC1 [Compound 1-68, (2S,3R)-3-((2-aminopyridin-4-yl)methyl)-N2-(1-methyl-1H-pyrazol-3-yl)-N1-((R)-1-cyclohexylbutyl)-N2-methyl-4-oxoazetidine-1,2-dicarboxamide] | 10 to 100
CC[C@@H](NC(=O)N1C(=O)[C@H](Cc2ccnc(N)c2)[C@H]1C(=O)N(C)c1nccn1C)c1ccc(C)c(C)c1F [Compound 1-218, (2S,3R)-3-((2-aminopyridin-4-yl)methyl)-N2-(1-methyl-1H-imidazol-2-yl)-N1-((R)-1-(2-fluoro-3,4-dimethylphenyl)propyl)-N2-methyl-4-oxoazetidine-1,2-dicarboxamide] | < 10
CC[C@@H](NC(=O)N1C(=O)[C@H](Cc2ccnc(N)c2)[C@H]1C(=O)N(C)c1nncn1C)c1ccccc1 [Compound 1-165, (2S,3R)-3-((2-aminopyridin-4-yl)methyl)-N2-(4-methyl-4H-1,2,4-triazol-3-yl)-N1-((R)-1-phenylpropyl)-N2-methyl-4-oxoazetidine-1,2-dicarboxamide] | 10 to 100
CC[C@@H](NC(=O)N1C(=O)[C@H](Cc2ccnc(N)c2)[C@H]1C(=O)N(C)c1nccn1C)c1ccc(C)c(F)c1C [Compound 1-196, (2S,3R)-3-((2-aminopyridin-4-yl)methyl)-N2-(1-methyl-1H-imidazol-2-yl)-N1-((R)-1-(2,4-dimethyl-3-fluorophenyl)propyl)-N2-methyl-4-oxoazetidine-1,2-dicarboxamide] | < 10
CC[C@H](c1cccc(Cl)c1)N(C)C(=O)N1C(=O)[C@H](Cc2ccnc(N)c2)[C@H]1C(=O)N(C)c1ccnn1C [Compound 1-60, (2S,3R)-3-((2-aminopyridin-4-yl)methyl)-N2-(1-methyl-1H-pyrazol-5-yl)-N1-((R)-1-(3-chlorophenyl)propyl)-N1-methyl-N2-methyl-4-oxoazetidine-1,2-dicarboxamide] | 10 to 100
CC[C@@H](NC(=O)N1C(=O)[C@H](Cc2ccnc(N)c2)[C@H]1C(=O)N(C)c1ccn(C)n1)c1ccn(C)n1 [Compound 1-42, (2S,3R)-3-((2-aminopyridin-4-yl)methyl)-N2-(1-methyl-1H-pyrazol-3-yl)-N1-((R)-1-(1-methyl-1H-pyrazol-3-yl)propyl)-N2-methyl-4-oxoazetidine-1,2-dicarboxamide] | 100 to 1000
CC[C@@H](NC(=O)N1C(=O)[C@H](Cc2ccnc(N)c2)[C@H]1C(=O)N(C)c1ccn(C)n1)c1ccsc1 [Compound 1-54, (2S,3R)-3-((2-aminopyridin-4-yl)methyl)-N2-(1-methyl-1H-pyrazol-3-yl)-N1-((R)-1-(thiophen-3-yl)propyl)-N2-methyl-4-oxoazetidine-1,2-dicarboxamide] | 10 to 100

More lines, now with the values ahead:

IC50 [nM] | SMILES
< 10 | CC[C@@H](NC(=O)N1C(=O)[C@H](Cc2ccnc(N)c2)[C@H]1C(=O)N(C)c1cnn(C)c1)c1ccc(C)c(F)c1F [Compound 1-208, (2S,3R)-3-((2-aminopyridin-4-yl)methyl)-N2-(1-methyl-1H-pyrazol-4-yl)-N1-((R)-1-(2,3-difluoro-4-methylphenyl)propyl)-N2-methyl-4-oxoazetidine-1,2-dicarboxamide]
< 10 | CC[C@@H](NC(=O)N1C(=O)[C@H](Cc2cc(C)nc(N)c2)[C@H]1C(=O)N(C)c1ccnn1C)c1ccc(F)cc1C [Compound 1-159, (2S,3R)-3-((2-amino-6-methylpyridin-4-yl)methyl)-N2-(1-methyl-1H-pyrazol-5-yl)-N1-((R)-1-(4-fluoro-2-methylhenyl)propyl)-N2-methyl-4-oxoazetidine-1,2-dicarboxamide]
< 10 | CC[C@@H](NC(=O)N1C(=O)[C@H](Cc2ccnc(N)c2)[C@H]1C(=O)N(C)c1ccn(C)n1)c1cc(C)c(F)c(C)c1 [Compound 1-203, (2S,3R)-3-((2-aminopyridin-4-yl)methyl)-N2-(1-methyl-1H-pyrazol-3-yl)-N1-((R)-1-(3,5-dimethyl-4-fluorophenyl)propyl)-N2-methyl-4-oxoazetidine-1,2-dicarboxamide]
< 10 | CC[C@@H](NC(=O)N1C(=O)[C@H](Cc2ccnc(N)c2)[C@H]1C(=O)N(C)c1cnn(C)c1)c1ccc(F)c(C)c1F [Compound 1-207, (2S,3R)-3-((2-aminopyridin-4-yl)methyl)-N2-(1-methyl-1H-pyrazol-4-yl)-N1-((R)-1-(2,4-difluoro-3-methylphenyl)propyl)-N2-methyl-4-oxoazetidine-1,2-dicarboxamide]
< 10 | CC[C@@H](NC(=O)N1C(=O)[C@H](Cc2cc(C)nc(N)c2)[C@H]1C(=O)N(C)c1ccnn1C)c1ccc(C)cc1F [Compound 1-160, (2S,3R)-3-((2-amino-6-methylpyridin-4-yl)methyl)-N2-(1-methyl-1H-pyrazol-5-yl)-N1-((R)-1-(2-fluoro-4-methylphenyl)propyl)-N2-methyl-4-oxoazetidine-1,2-dicarboxamide]
< 10 | CC[C@@H](NC(=O)N1C(=O)[C@H](Cc2ccnc(N)c2)[C@H]1C(=O)N(C)c1ccnn1C)c1cccc(F)c1F [Compound 1-213, (2S,3R)-3-((2-aminopyridin-4-yl)methyl)-N2-(1-methyl-1H-pyrazol-5-yl)-N1-((R)-1-(2,3-difluorophenyl)propyl)-N2-methyl-4-oxoazetidine-1,2-dicarboxamide]
< 10 | CC[C@@H](NC(=O)N1C(=O)[C@H](Cc2ccnc(N)c2)[C@H]1C(=O)N(C)c1ccn(C)n1)c1cccc(Cl)c1C [Compound 1-138, (2S,3R)-3-((2-aminopyridin-4-yl)methyl)-N2-(1-methyl-1H-pyrazol-3-yl)-N1-((R)-1-(3-chloro-2-methylphenyl)propyl)-N2-methyl-4-oxoazetidine-1,2-dicarboxamide]
< 10 | CC[C@@H](NC(=O)N1C(=O)[C@H](Cc2ccnc(N)c2)[C@H]1C(=O)N(C)c1nccn1C)c1ccc(C)c(C)c1C [Compound 1-209, (2S,3R)-3-((2-aminopyridin-4-yl)methyl)-N2-(1-methyl-1H-imidazol-2-yl)-N1-((R)-1-(2,3,4-trimethylphenyl)propyl)-N2-methyl-4-oxoazetidine-1,2-dicarboxamide]
